In the SangsterLogP compilation:

Assay: method code SF-HPLC, from DOI: 10.1002/jps.2600750109, PMID: 3958903
Details: pH 7.4

**Q.** Which logD does the source give for `CCCCCCOC(=O)C(CC)C(CO)Cc1cncn1C` (stereo unspecified) here?
**A.** The logD was 2.71.

**Q.** Which logD does the source give for `CC[C@H](C(=O)OCc1ccccc1C)[C@H](CO)Cc1cncn1C` here?
**A.** The logD was 2.42.

**Q.** With `CC[C@H](C(=O)OCc1ccc(Cl)cc1)[C@H](CO)Cc1cncn1C` as the compound, how does the logD read?
**A.** Its logD is 2.69.

**Q.** With `CCOC(=O)CC(CO)C(CC)c1cncn1C` (stereo unspecified) as the compound, how does the logD read?
**A.** The logD was 0.73.

**Q.** Which logD does the source give for `CCC(C(=O)OCCc1ccccc1)C(CO)Cc1cncn1C` (stereo unspecified) here?
**A.** The logD was 2.31.

**Q.** For `CCC(C(=O)OC(C)c1ccccc1)C(CO)Cc1cncn1C` (stereo unspecified), which logD is on record?
**A.** Its logD is 2.23.

**Q.** Which logD does the source give for `CCCCOC(=O)[C@@H](CC)[C@H](CO)Cc1cncn1C` here?
**A.** Its logD is 1.73.

**Q.** For `O=C(NCN1CCOCC1)c1ccccc1O`, which logD is on record?
**A.** Its logD is 1.27.

**Q.** Which logD does the source give for `CC[C@H](C(=O)OCc1ccc(C)cc1)[C@H](CO)Cc1cncn1C` here?
**A.** The logD was 2.46.

**Q.** For `CCC(C(=O)OCc1ccccc1)C(CO)Cc1cncn1C` (stereo unspecified), which logD is on record?
**A.** The logD was 1.97.

**Q.** With `CC(C)(C)C(=O)OCOc1ccccc1C(=O)NCN1CCOCC1` as the compound, how does the logD read?
**A.** Its logD is 1.81.
